According to patent publication US6426229B1, “Chelating agent and detergent comprising the same” (Mitsubishi Rayon Co., Ltd., priority 1995, dated 2002):

Assays:
[1] = Storage of aqueous solution or slurry for 60 days: HPLC analysis of components and appearance; assay type: physicochemical; details: keeping temperature 50° C.
Experimental: (§1) This aqueous solution was kept at 50° C. for 60 days, and, then, the components were analyzed by HPLC and, simultaneously, the appearance of the solution was observed.
as §1
This aqueous solution was kept at 50° C. for 60 days. Then, the components were analyzed by HPLC and, simultaneously, the appearance of the solution was observed.

[2] = as above; assay type: physicochemical

SMILES | Appearance after kept for 60 days [1] | Content of the compound of the formula [I] in aqueous solution after kept for 60 days [1] | further results
O=C([O-])CCN[C@@H](CC(=O)[O-])C(=O)[O-].[Na+].[Na+].[Na+] [Example 87, trisodium salt of (S)-aspartic acid-N-monopropionic acid] | Light yellow transparent aqueous solution | 37.8 wt. % | 
O=C([O-])CC(NCCNC(CC(=O)[O-])C(=O)[O-])C(=O)[O-].[Na+].[Na+].[Na+].[Na+] (stereo not drawn) [compound 43, tetrasodium ethylenediamine-N,N′-disuccinate] | Light yellow transparent aqueous solution | 35.7 wt. % | 
O=C([O-])CN[C@@H](CC(=O)[O-])C(=O)[O-].[Na+].[Na+].[Na+] [Example 85, trisodium salt of (S)-aspartic acid-N-monoacetic acid] | Light yellow transparent aqueous solution | 35.4 wt. % | 
O=C([O-])CN(CC(=O)[O-])c1ccccc1C(=O)[O-].[Na+].[Na+].[Na+] [Example 102, trisodium salt of anthranilic acid-N,N-diacetic acid] | Light yellow transparent aqueous solution | 37.8 wt. % | 
O=C([O-])CN[C@@H](CC(=O)[O-])C(=O)[O-].[Na+].[Na+].[Na+] [compound 29, trisodium salt of (S)-aspartic acid-N-monoacetic acid] | Brown aqueous solution | 31.1 wt. % | 
O=C([O-])CN(CCS(=O)(=O)[O-])CC(=O)[O-].[Na+].[Na+].[Na+] [Example 100, trisodium salt of taurine-N,N-diacetic acid] | Light yellow transparent aqueous solution | 34.7 wt. % | 
O=C([O-])C[C@H](NCCN[C@@H](CC(=O)[O-])C(=O)[O-])C(=O)[O-].[Fe+3].[NH4+] [Example 125, iron ammonium (S,S)-ethylenediamine-N,N′-disuccinate] | Reddish brown aqueous solution | 36.5 wt. % | 
O=C([O-])CN[C@@H](CC(=O)[O-])C(=O)[O-].[Na+].[Na+].[Na+] [compound 33, trisodium salt of (S)-aspartic acid-N-monoacetic acid] | Brown slurry | 30.5 wt. % | 
O=C([O-])CN(CC(=O)[O-])c1ccccc1C(=O)[O-].[Na+].[Na+].[Na+] [compound 39, trisodium salt of anthranilic acid-N,N-diacetic acid] | Brown aqueous solution | 31.8 wt. % | 
O=C([O-])CN(CCS(=O)(=O)[O-])CC(=O)[O-].[Na+].[Na+].[Na+] [compound 40, trisodium salt of taurine-N,N-diacetic acid] | Brown slurry | 29.5 wt. % | 
O=C([O-])C[C@H](NCCN[C@@H](CC(=O)[O-])C(=O)[O-])C(=O)[O-].[Na+].[Na+].[Na+].[Na+] [Example 113, tetrasodium (S,S)-ethylenediamine-N,N′-disuccinate] | Light yellow transparent aqueous solution | 35.6 wt. % | 
O=C([O-])CN(CCS(=O)(=O)[O-])CC(=O)[O-].[Na+].[Na+].[Na+] [compound 37, trisodium salt of taurine-N,N-diacetic acid] | Brown aqueous solution | 30.4 wt. % | 
O=C([O-])C[C@@H](C(=O)[O-])N(CC(=O)[O-])CC(=O)[O-].[Na+].[Na+].[Na+].[Na+] [compound 30, tetrasodium salt of (S)-aspartic acid-N,N-diacetic acid] | Brown aqueous solution | 31.8 wt. % | 
C[C@@H](C(=O)[O-])N(CC(=O)[O-])CC(=O)[O-].[Na+].[Na+].[Na+] [compound 32, trisodium salt of (S)-α-alanine-N,N-diacetic acid] | Brown aqueous solution | 31.8 wt. % | 
O=C([O-])C[C@H](NCCN[C@@H](CC(=O)[O-])C(=O)[O-])C(=O)[O-].[Na+].[Na+].[Na+].[Na+] [compound 44, tetrasodium (S,S)-ethylenediamine-N,N′-disuccinate] | Light yellow transparent aqueous solution | 34.4 wt. % | 
CN(CC(=O)[O-])CC(=O)[O-].[Na+].[Na+] [Example 101, disodium N-methyliminodiacetate] | Light yellow transparent aqueous solution | 36.6 wt. % | 
O=C([O-])C[C@H](NCCN[C@@H](CC(=O)[O-])C(=O)[O-])C(=O)[O-].[Fe+3].[NH4+] [compound 49, iron ammonium (S,S)-ethylenediamine-N,N′-disuccinate] | Blackish brown aqueous solution | 29.9 wt. % | 
O=C([O-])CC(NCCCNC(CC(=O)[O-])C(=O)[O-])C(=O)[O-].[Na+].[Na+].[Na+].[Na+] (stereo not drawn) [Example 114, tetrasodium 1,3-propanediamine-N,N′-disuccinate] | Light yellow transparent aqueous solution | 36.4 wt. % | 
O=C([O-])CC(NCCCNC(CC(=O)[O-])C(=O)[O-])C(=O)[O-].[Cu+2].[Na+].[Na+] (stereo not drawn) [Example 126, copper disodium 1,3-propanediamine-N,N′-disuccinate] | Dark blue transparent aqueous solution | 36.4 wt. % | 
O=C([O-])CCN[C@@H](CC(=O)[O-])C(=O)[O-].[Na+].[Na+].[Na+] [compound 31, trisodium salt of (S)-aspartic acid-N-monopropionic acid] | Brown aqueous solution | 33.2 wt. % | 
O=C([O-])CC(NCCNC(CC(=O)[O-])C(=O)[O-])C(=O)[O-].[Cu+2].[Na+].[Na+] (stereo not drawn) [compound 48, copper disodium ethylenediamine-N,N′-disuccinate] | Dark blue transparent aqueous solution | 31.4 wt. % | 
O=C([O-])CC(NCCNC(CC(=O)[O-])C(=O)[O-])C(=O)[O-].[Na+].[Na+].[Na+].[Na+] (stereo not drawn) [Example 112, tetrasodium ethylenediamine-N,N′-disuccinate] | Light yellow transparent aqueous solution | 36.4 wt. % | 
O=C([O-])C[C@@H](C(=O)[O-])N(CC(=O)[O-])CC(=O)[O-].[Na+].[Na+].[Na+].[Na+] [Example 90, tetrasodium salt of (S)-aspartic acid-N,N-diacetic acid] |  |  | Appearance after kept for 60 days ([2]; keeping temperature 75° C.): Colorless transparent aqueous solution; Content of the compound of the formula [I] in aqueous solution after kept for 60 days ([2]; keeping temperature 75° C.): 49.5 wt. %
C[C@@H](C(=O)[O-])N(CC(=O)[O-])CC(=O)[O-].[Na+].[Na+].[Na+] [Example 92, trisodium salt of (S)-α-alanine-N,N-diacetic acid] |  |  | Appearance after kept for 60 days ([2]; keeping temperature 75° C.): Colorless transparent aqueous solution; Content of the compound of the formula [I] in aqueous solution after kept for 60 days ([2]; keeping temperature 75° C.): 49.8 wt. %
CN(CC(=O)[O-])CC(=O)[O-].[Na+].[Na+] [Example 109, disodium N-methyliminodiacetate] |  |  | Appearance after kept for 60 days ([2]; keeping temperature 70° C.): White slurry; Content of the compound of the formula [I] in aqueous solution after kept for 60 days ([2]; keeping temperature 70° C.): 78.5 wt. %
O=C([O-])C[C@H](NCCCN[C@@H](CC(=O)[O-])C(=O)[O-])C(=O)[O-].[Na+].[Na+].[Na+].[Na+] [Example 115, tetrasodium (S,S)-1,3-propanediamine-N,N′-disuccinate] |  |  | Appearance after kept for 60 days ([2]; keeping temperature 75° C.): Colorless transparent aqueous solution; Content of the compound of the formula [I] in aqueous solution after kept for 60 days ([2]; keeping temperature 75° C.): 44.3 wt. %
O=C([O-])C[C@H](NCC(O)CN[C@@H](CC(=O)[O-])C(=O)[O-])C(=O)[O-].[Na+].[Na+].[Na+].[Na+] [compound 47, tetrasodium (S,S)-2-hydroxy-1,3-propanediamine-N,N′-disuccinate, reference compound] |  |  | Appearance after kept for 60 days ([2]; keeping temperature 75° C.): Colorless transparent aqueous solution; Content of the compound of the formula [I] in aqueous solution after kept for 60 days ([2]; keeping temperature 75° C.): 41.8 wt. %
O=C([O-])CC(NCCCNC(CC(=O)[O-])C(=O)[O-])C(=O)[O-].[Na+].[Na+].[Na+].[Na+] (stereo not drawn) [Example 119, tetrasodium 1,3-propanediamine-N,N′-disuccinate] |  |  | Appearance after kept for 60 days ([2]; keeping temperature 65° C.): Light yellow slurry; Content of the compound of the formula [I] in aqueous solution after kept for 60 days ([2]; keeping temperature 65° C.): 65.4 wt. %
O=C([O-])CCN[C@@H](CC(=O)[O-])C(=O)[O-].[Na+].[Na+].[Na+] [Example 91, trisodium salt of (S)-aspartic acid-N-monopropionic acid] |  |  | Appearance after kept for 60 days ([2]; keeping temperature 75° C.): Colorless transparent aqueous solution; Content of the compound of the formula [I] in aqueous solution after kept for 60 days ([2]; keeping temperature 75° C.): 49.8 wt. %
O=C([O-])CC(NCCCNC(CC(=O)[O-])C(=O)[O-])C(=O)[O-].[Na+].[Na+].[Ni+2] [Example 127, nickel disodium (S,S)-1,3-propanediamine-N,N′-disuccinate] |  |  | Appearance after kept for 60 days ([2]; keeping temperature 75° C.): Blue transparent aqueous solution; Content of the compound of the formula [I] in aqueous solution after kept for 60 days ([2]; keeping temperature 75° C.): 44.0 wt. %
